“And” between values parts separate entries of the source, which are not always exact repeats. Equal values may be shown once.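 96-well plates; 48 h exposure; 5 concentrations. Endpoints by linear interpolation between flanking doses. Not reached: highest tested concentration assigned. Abbreviation: GI50, concentration required for 50% inhibition of growth. TGI is the concentration that stops growth completely.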
What was measured:
Experiment in all cases: NCI anticancer screen, dose series, 48 h
TK-10 renal = system: TK-10 renal
SNB-75 CNS = system: SNB-75 CNS
MDA-MB-435 = system: MDA-MB-435
RXF 393 renal = system: RXF 393 renal
HOP-62 NSCLC = system: HOP-62 NSCLC
PC-3 prostate = system: PC-3 prostate
OVCAR-4 ovarian = system: OVCAR-4 ovarian
SF-539 CNS = system: SF-539 CNS
M14 melanoma = system: M14 melanoma
SK-MEL-2 melanoma = system: SK-MEL-2 melanoma

| SMILES | GI50 (TK-10 renal) | TGI (TK-10 renal) | GI50 (SNB-75 CNS) | TGI (SNB-75 CNS) | GI50 (MDA-MB-435) | TGI (MDA-MB-435) | GI50 (RXF 393 renal) | TGI (RXF 393 renal) | GI50 (HOP-62 NSCLC) | TGI (HOP-62 NSCLC) | GI50 (PC-3 prostate) | TGI (PC-3 prostate) | GI50 (OVCAR-4 ovarian) | TGI (OVCAR-4 ovarian) | GI50 (SF-539 CNS) | TGI (SF-539 CNS) | GI50 (M14 melanoma) | TGI (M14 melanoma) | GI50 (SK-MEL-2 melanoma) | TGI (SK-MEL-2 melanoma) |
| --- | --- | --- | --- | --- | --- | --- | --- | --- | --- | --- | --- | --- | --- | --- | --- | --- | --- | --- | --- | --- |
| CN(C)CCCn1c2c(c3ccc(N4CCNCC4)cc3c1=O)C(=O)c1ccccc1-2 | 1.33 µM | 4.41 µM | 0.947 µM | 2.55 µM | 1.2 µM | 2.67 µM | 1.29 µM | 2.9 µM | 1.06 µM | 2.64 µM | 0.863 µM | 3.79 µM | 0.343 µM | 1.88 µM | 1.61 µM | 3.16 µM | 1.05 µM | 2.39 µM | 1.71 µM | 3.38 µM |
| CCCN1CCCC(c2ccc(Nc3nc(Nc4cc(F)ccc4C(N)=O)c4cc[nH]c4n3)c(OC)c2)C1 (centres undefined) | 0.622 µM | 4.39 µM | 3.14 µM | 6.43 µM | 1.04 µM | 5.39 µM | 0.942 µM | 4.48 µM | 2.62 µM | 5.58 µM | 4.17 µM | 9.6 µM | 3.03 µM | 6.13 µM | 2.14 µM | 6.05 µM | 1.02 µM | 4.8 µM | 1.42 µM | 5.26 µM |
| N#CSc1c[nH]c2cccc(/C=C/C(=O)/C=C(O)/C=C/c3cccc4[nH]cc(SC#N)c34)c12 | 0.756 µM | 2.51 µM | 0.67 µM | 2.68 µM | 0.542 µM | 1.42 µM | 0.326 µM | 1 µM | 1.15 µM | 4.35 µM | 0.136 µM | 1.77 µM | 0.216 µM | 1.72 µM | 0.559 µM | 1.36 µM | 0.437 µM | 1.11 µM | 0.829 µM | 1.93 µM |
| CN(C)c1ccc(-c2cc(-c3cccc(NS(C)(=O)=O)c3)nc(N)c2C#N)cc1 | 0.0735 µM | > 55.2 µM | 0.0272 µM | 3.22 µM | 0.0122 µM | 0.035 µM | 0.0183 µM | 0.0565 µM | 0.045 µM | 29.6 µM | 0.0327 µM | 13.3 µM | 0.522 µM | 53.8 µM | 0.0279 µM | 0.173 µM | 0.0262 µM | 13.4 µM | 0.0449 µM | 21.8 µM |
| Nc1nc(-c2ccccn2)c(-c2ccc3ncccc3n2)s1 | > 25 µM | > 25 µM | > 25 µM | > 25 µM | > 25 µM | > 25 µM | > 25 µM | > 25 µM | > 25 µM | > 25 µM | > 25 µM | > 25 µM | > 25 µM | > 25 µM | > 25 µM | > 25 µM | > 25 µM | > 25 µM | > 25 µM | > 25 µM |
| c1c[nH]c(CN2CCN(Cc3ncc[nH]3)CC2)n1 | – | > 100 µM | – | > 100 µM | – | > 100 µM | – | > 100 µM | – | > 100 µM | – | > 100 µM | – | > 100 µM | – | > 100 µM | – | > 100 µM | – | > 100 µM |
| Nc1c2ccccc2nc2ccccc12 | 2.07 µM and 4.61 µM | – | 2.46 µM and 3.11 µM | 6 µM and 10.4 µM | 2.23 µM and 3.46 µM | 6.32 µM and 13.7 µM | 1.1 µM and 2.31 µM | 2.77 µM and 6.57 µM | 1.66 µM and 3.66 µM | 4.96 µM and 15.2 µM | 2.24 µM and 3.13 µM | 9.38 µM and 15.9 µM | 1.02 µM and 2.69 µM | 6.38 µM and 7.3 µM | 2.56 µM and 4.87 µM | 7.93 µM and 16.2 µM | 1.7 µM and 3.21 µM | 3.48 µM and 10 µM | 1.74 µM and 3.87 µM | 3.41 µM and 11.4 µM |
| OC1(c2ccccc2)c2ccccc2N(c2ccccc2)c2ccc(Cl)cc21 (centres undefined) | 0.3 µM | 1.01 µM | 0.293 µM | 1.11 µM | 0.213 µM | 0.631 µM | 0.185 µM | 0.472 µM | 0.328 µM | 1.23 µM | 0.303 µM | 1.23 µM | 0.313 µM | 1.39 µM | 0.236 µM | 0.683 µM | 0.249 µM | 0.694 µM | 0.24 µM | 0.485 µM |
| CCCCCCCCCCCCNC(=O)N[C@H](C(=O)N[C@H]1/C=C/OCCNC(=O)/C=C/[C@H](C(C)C)NC1=O)C(C)C | 10.3 µM | > 76.4 µM | 4.31 µM | > 100 µM | 1.48 µM | > 100 µM | 3.65 µM | 28.2 µM | 8.5 µM | 34 µM | 0.682 µM | > 100 µM | 3.61 µM | > 100 µM | 2.49 µM | 18.4 µM | 20.2 µM | > 70.3 µM | 4 µM | > 59.2 µM |
| CC1(C)N=C(N)N=C(N)N1c1cccc(CC(=O)Nc2ccccc2)c1 | > 100 µM | > 100 µM | 15.4 µM | > 100 µM | 4.38 µM | > 100 µM | > 100 µM | > 100 µM | 53.4 µM | > 100 µM | 0.895 µM | > 100 µM | 81.8 µM | > 100 µM | 10.5 µM | > 100 µM | 40.2 µM | > 100 µM | > 100 µM | > 100 µM |
| COc1ncc(-c2ccc3nc(N)n(-c4ccccc4C(F)(F)F)c(=O)c3c2)cc1S(=O)(=O)Nc1ccc(F)cc1F | 6.73 µM | > 100 µM | 0.866 µM | > 100 µM | 1.11 µM | 4.28 µM | 0.099 µM | 4.46 µM | 0.526 µM | > 100 µM | 1.71 µM | 73.7 µM | 3.64 µM | > 100 µM | 1.22 µM | 20.4 µM | 1.23 µM | 14.8 µM | 2.28 µM | 11.9 µM |
| CC(=O)Nc1ccc(S(=O)(=O)N2C(=O)CCC2C(=O)Nc2ccccc2)cc1 (centres undefined) | 1.91 µM | 13.5 µM | 1.63 µM | 6.86 µM | 0.582 µM | 17.3 µM | 3.48 µM | 13.9 µM | 0.879 µM | 13.4 µM | 1.08 µM | 15.7 µM | 0.698 µM | 10.8 µM | 0.542 µM | 4.4 µM | 0.265 µM | 12.5 µM | 1.34 µM | 9.05 µM |
| Nc1ncnc2c1ncn2C1SC(CO)C(O)C1O (centres undefined) | 60.9 µM | > 100 µM | 16.8 µM | 46.3 µM | 18.1 µM | 50.2 µM | 80.6 µM | > 100 µM | 24.9 µM | 91.2 µM | 3.72 µM | 33.1 µM | 34.6 µM | > 100 µM | 19.7 µM | 50.1 µM | 21 µM | 55.6 µM | 78.8 µM | > 100 µM |
| COc1ccc2c(c1)OCC1c3cc(OC)ccc3OC21 (centres undefined) | > 100 µM | > 100 µM | 47.3 µM | > 100 µM | 50.8 µM | > 100 µM | 58 µM | > 100 µM | 95 µM | > 100 µM | 91.2 µM | > 100 µM | 39.2 µM | > 100 µM | 97.7 µM | > 100 µM | 39 µM | > 100 µM | 94.3 µM | > 100 µM |
| CC[C@@]12CC(C(=O)OC)=C3Nc4ccccc4[C@@]34CCN(C[C@H]3O[C@H]31)[C@@H]24 | > 100 µM | > 100 µM | 14.8 µM | 64.9 µM | 16.2 µM | 44.1 µM | 26.4 µM | > 100 µM | 94.9 µM | > 100 µM | 52.7 µM | > 100 µM | 82.5 µM | > 100 µM | 61.2 µM | > 100 µM | 31.7 µM | > 100 µM | 25.1 µM | > 100 µM |
| O=c1c2cc(F)ccc2sc2c(NCCCNCCO)nc3ccc(F)cc3c12 | 1.9 µM | 3.7 µM | 1.51 µM | 3.27 µM | 1.71 µM | 3.2 µM | 1.51 µM | 2.95 µM | 1.61 µM | 3.53 µM | 1.67 µM | 3.3 µM | 2.03 µM | 4.43 µM | 1.68 µM | 3.12 µM | 1.85 µM | 3.67 µM | 2.04 µM | 4.34 µM |
| N/C(=N\O)c1cn(C2OC(CO)C(O)C2O)c2ncnc(N)c12 (centres undefined) | 0.204 µM | 7.49 µM | 0.18 µM | 6.17 µM | 0.0758 µM | 0.263 µM | 0.169 µM | 0.722 µM | 0.468 µM | > 68.7 µM | 0.343 µM | 5.79 µM | 0.177 µM | 4.05 µM | 0.255 µM | 3.51 µM | 0.108 µM | 0.776 µM | 0.128 µM | 0.4 µM |
| O=C(N=Nc1c(O)[nH]c2c(Cl)cc(Cl)cc12)C(=O)Nc1cccc(C(F)(F)F)c1 | – | > 100 µM | – | > 100 µM | – | > 100 µM | – | > 100 µM | – | > 100 µM | – | > 100 µM | – | > 100 µM | – | > 100 µM | – | > 100 µM | – | > 100 µM |
| CNC(=S)N/N=C/CSC/C=N/NC(=S)NC | > 100 µM | > 100 µM | > 100 µM | > 100 µM | > 100 µM | > 100 µM | > 100 µM | > 100 µM | > 100 µM | > 100 µM | > 100 µM | > 100 µM | – | > 100 µM | > 100 µM | > 100 µM | > 100 µM | > 100 µM | > 100 µM | > 100 µM |
| CS(=O)c1cc(=O)c2ccccc2s1 (centres undefined) | – | 12.7 µM | – | 24.4 µM | – | 19 µM | – | 5.46 µM | – | 44.2 µM | – | 28.9 µM | – | 5.95 µM | – | 18.4 µM | – | 3.12 µM | – | 24.7 µM |
| O=C(/C=C/c1ccccc1)c1ccccn1 | – | 31 µM and 36.9 µM | – | 37.5 µM and 92.7 µM | – | 44.7 µM and 88.7 µM | – | 37.4 µM and 36.5 µM | 13.9 µM and 34.7 µM | 29.3 µM and > 100 µM | – | 47.3 µM and 41.3 µM | – | 54.8 µM and 47.2 µM | – | 42.4 µM | – | 29.9 µM | – | 43.8 µM |

Reference: PubChem BioAssay (NCI)
